Data: patent US5530126A, “Process for the preparation of substituted 6-(pyrazol-3yl)-1,4-benzoxazin-3-ones” (Monsanto Company, priority 1994, dated 1996)

Columns and labels:
Format in all cases: in vivo
[1] = tested on: Annual bluegrass; assay: Pre-emergence herbicide test; conditions: read-out: % plant inhibition (Anbg); for inhibition at 1120 g/ha: 1.12 kg/ha; for inhibition at 11210 g/ha: 11.21 kg/ha
Procedure, shortened: (§1)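 Percent growth inhibition was rated roughly 10-14 days after treatment. Test compound, dissolved or suspended in acetone or water, had been applied to seeds placed on compacted topsoil, which was then covered with untreated soil and kept in the greenhouse.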

[2] = tested on: Barnyardgrass; assay: Pre-emergence herbicide test; conditions: Echinochloa crus-galli, read-out: % plant inhibition (Bygr); for inhibition at 1120 g/ha: 1.12 kg/ha; for inhibition at 11210 g/ha: 11.21 kg/ha
Procedure, shortened: as §1

[3] = tested on: Cocklebur; assay: Pre-emergence herbicide test; conditions: Xanthium strumarium, read-out: % plant inhibition (Cobu); for inhibition at 1120 g/ha: 1.12 kg/ha; for inhibition at 11210 g/ha: 11.21 kg/ha
Procedure, shortened: as §1

[4] = tested on: Downy Brome; assay: Pre-emergence herbicide test; conditions: Bromus tectorum, read-out: % plant inhibition (Dobr); for inhibition at 1120 g/ha: 1.12 kg/ha; for inhibition at 11210 g/ha: 11.21 kg/ha
Procedure, shortened: as §1

[5] = tested on: Indian Mustard; assay: Pre-emergence herbicide test; conditions: Brassica juncea, read-out: % plant inhibition (Inmu); for inhibition at 1120 g/ha: 1.12 kg/ha; for inhibition at 11210 g/ha: 11.21 kg/ha
Procedure, shortened: as §1

[6] = tested on: Morningglory; assay: Pre-emergence herbicide test; conditions: Ipomoea, read-out: % plant inhibition (Mogl); for inhibition at 1120 g/ha: 1.12 kg/ha; for inhibition at 11210 g/ha: 11.21 kg/ha
Procedure, shortened: as §1

[7] = tested on: Seedling johnsongrass; assay: Pre-emergence herbicide test; conditions: Sorghum halepense, read-out: % plant inhibition (Sejg); for inhibition at 1120 g/ha: 1.12 kg/ha; for inhibition at 11210 g/ha: 11.21 kg/ha
Procedure, shortened: as §1

[8] = tested on: Velvetleaf; assay: Pre-emergence herbicide test; conditions: Abutilon theophrasti, read-out: % plant inhibition (Vele); for inhibition at 1120 g/ha: 1.12 kg/ha; for inhibition at 11210 g/ha: 11.21 kg/ha
Procedure, shortened: as §1

[9] = tested on: Wild buckwheat; assay: Pre-emergence herbicide test; conditions: Fallopia convolvulus, read-out: % plant inhibition (Wibw); for inhibition at 1120 g/ha: 1.12 kg/ha; for inhibition at 11210 g/ha: 11.21 kg/ha
Procedure, shortened: as §1

[10] = tested on: Yellow nutsedge; assay: Pre-emergence herbicide test; conditions: Cyperus, read-out: % plant inhibition (Yens); for inhibition at 1120 g/ha: 1.12 kg/ha; for inhibition at 11210 g/ha: 11.21 kg/ha
Procedure, shortened: as §1

[11] = tested on: Annual bluegrass; assay: Post-emergence herbicide test; conditions: read-out: % plant inhibition (Anbg); for inhibition at 1120 g/ha: 1.12 kg/ha; for inhibition at 11210 g/ha: 11.21 kg/ha
Procedure, shortened: (§2)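 Plants grown from seed or vegetative propagules in greenhouse soil pans were sprayed at two to three weeks of age by atomizer at 170.3 kPa, delivering 1870 L/Ha containing about 0.4% v/v emulsifier. Injury versus untreated controls was scored as percent inhibition at about 11 days, sometimes again near 25 days.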

[12] = tested on: Barnyardgrass; assay: Post-emergence herbicide test; conditions: Echinochloa crus-galli, read-out: % plant inhibition (Bygr); for inhibition at 1120 g/ha: 1.12 kg/ha; for inhibition at 11210 g/ha: 11.21 kg/ha
Procedure, shortened: as §2

[13] = tested on: Cocklebur; assay: Post-emergence herbicide test; conditions: Xanthium strumarium, read-out: % plant inhibition (Cobu); for inhibition at 1120 g/ha: 1.12 kg/ha; for inhibition at 11210 g/ha: 11.21 kg/ha
Procedure, shortened: as §2

[14] = tested on: Downy Brome; assay: Post-emergence herbicide test; conditions: Bromus tectorum, read-out: % plant inhibition (Dobr); for inhibition at 1120 g/ha: 1.12 kg/ha; for inhibition at 11210 g/ha: 11.21 kg/ha
Procedure, shortened: as §2

[15] = tested on: Indian Mustard; assay: Post-emergence herbicide test; conditions: Brassica juncea, read-out: % plant inhibition (Inmu); for inhibition at 1120 g/ha: 1.12 kg/ha; for inhibition at 11210 g/ha: 11.21 kg/ha
Procedure, shortened: as §2

[16] = tested on: Morningglory; assay: Post-emergence herbicide test; conditions: Ipomoea, read-out: % plant inhibition (Mogl); for inhibition at 1120 g/ha: 1.12 kg/ha; for inhibition at 11210 g/ha: 11.21 kg/ha
Procedure, shortened: as §2

[17] = tested on: Seedling johnsongrass; assay: Post-emergence herbicide test; conditions: Sorghum halepense, read-out: % plant inhibition (Sejg); for inhibition at 1120 g/ha: 1.12 kg/ha; for inhibition at 11210 g/ha: 11.21 kg/ha
Procedure, shortened: as §2

[18] = tested on: Velvetleaf; assay: Post-emergence herbicide test; conditions: Abutilon theophrasti, read-out: % plant inhibition (Vele); for inhibition at 1120 g/ha: 1.12 kg/ha; for inhibition at 11210 g/ha: 11.21 kg/ha
Procedure, shortened: as §2

[19] = tested on: Wild buckwheat; assay: Post-emergence herbicide test; conditions: Fallopia convolvulus, read-out: % plant inhibition (Wibw); for inhibition at 1120 g/ha: 1.12 kg/ha; for inhibition at 11210 g/ha: 11.21 kg/ha
Procedure, shortened: as §2

[20] = tested on: Yellow nutsedge; assay: Post-emergence herbicide test; conditions: Cyperus, read-out: % plant inhibition (Yens); for inhibition at 1120 g/ha: 1.12 kg/ha; for inhibition at 11210 g/ha: 11.21 kg/ha
Procedure, shortened: as §2

CC(C)CCOC(=O)COc1cc(-c2nn(C)c(C(F)(F)F)c2Cl)c(F)cc1Cl [Compound 288]
90%: inhibition at 1120 g/ha [9] | inhibition at 1120 g/ha [15]
10%: inhibition at 1120 g/ha [20]
20%: inhibition at 1120 g/ha [5] | inhibition at 1120 g/ha [17]
30%: inhibition at 1120 g/ha [3]
0%: inhibition at 1120 g/ha [1] | inhibition at 1120 g/ha [2] | inhibition at 1120 g/ha [4] | inhibition at 1120 g/ha [7] | inhibition at 1120 g/ha [10] | inhibition at 1120 g/ha [11] | inhibition at 1120 g/ha [14]
100%: inhibition at 1120 g/ha [6] | inhibition at 1120 g/ha [8] | inhibition at 1120 g/ha [13] | inhibition at 1120 g/ha [16] | inhibition at 1120 g/ha [18] | inhibition at 1120 g/ha [19]
50%: inhibition at 1120 g/ha [12]

Cn1nc(C(F)(F)F)c(Cl)c1-c1cc([N+](=O)[O-])c(F)cc1F [Compound 77]
0%: inhibition at 11210 g/ha [3] | inhibition at 11210 g/ha [6] | inhibition at 11210 g/ha [10] | inhibition at 11210 g/ha [14] | inhibition at 11210 g/ha [20]
10%: inhibition at 11210 g/ha [4] | inhibition at 11210 g/ha [16]
20%: inhibition at 11210 g/ha [9] | inhibition at 11210 g/ha [11] | inhibition at 11210 g/ha [12] | inhibition at 11210 g/ha [13] | inhibition at 11210 g/ha [17]
40%: inhibition at 11210 g/ha [7]
30%: inhibition at 11210 g/ha [2] | inhibition at 11210 g/ha [5] | inhibition at 11210 g/ha [8] | inhibition at 11210 g/ha [18]
80%: inhibition at 11210 g/ha [1]
60%: inhibition at 11210 g/ha [15] | inhibition at 11210 g/ha [19]

COCCOc1cc(-c2nn(C)c(C(F)(F)F)c2Cl)c(F)cc1Cl [Compound 270, 4-Chloro-3-(4-chloro-2-fluoro-5-(methoxyethoxy)phenyl)-1-methyl-5-(trifluoromethyl)-1H-pyrazole]
100%: inhibition at 1120 g/ha [4] | inhibition at 1120 g/ha [5] | inhibition at 1120 g/ha [6] | inhibition at 1120 g/ha [8] | inhibition at 1120 g/ha [9] | inhibition at 1120 g/ha [12] | inhibition at 1120 g/ha [14] | inhibition at 1120 g/ha [16] | inhibition at 1120 g/ha [18] | inhibition at 1120 g/ha [19]
30%: inhibition at 1120 g/ha [10]
60%: inhibition at 1120 g/ha [3] | inhibition at 1120 g/ha [20]
70%: inhibition at 1120 g/ha [1] | inhibition at 1120 g/ha [7]
90%: inhibition at 1120 g/ha [2] | inhibition at 1120 g/ha [11] | inhibition at 1120 g/ha [13] | inhibition at 1120 g/ha [15] | inhibition at 1120 g/ha [17]

COc1cc(-c2c(Cl)c(C(F)(F)F)nn2C)c(F)cc1[N+](=O)[O-] [Compound 72]
0%: inhibition at 11210 g/ha [10]
90%: inhibition at 11210 g/ha [5] | inhibition at 11210 g/ha [8] | inhibition at 11210 g/ha [9] | inhibition at 11210 g/ha [18] | inhibition at 11210 g/ha [19]
60%: inhibition at 11210 g/ha [2] | inhibition at 11210 g/ha [7] | inhibition at 11210 g/ha [13]
50%: inhibition at 11210 g/ha [12]
30%: inhibition at 11210 g/ha [15] | inhibition at 11210 g/ha [16]
20%: inhibition at 11210 g/ha [1] | inhibition at 11210 g/ha [3] | inhibition at 11210 g/ha [4] | inhibition at 11210 g/ha [14]
10%: inhibition at 11210 g/ha [11] | inhibition at 11210 g/ha [17] | inhibition at 11210 g/ha [20]
40%: inhibition at 11210 g/ha [6]

COCCOCc1cc(-c2nn(C)c(C(F)(F)F)c2Cl)c(F)cc1Cl [Compound 117]
90%: inhibition at 1120 g/ha [4] | inhibition at 1120 g/ha [6] | inhibition at 1120 g/ha [11] | inhibition at 1120 g/ha [13] | inhibition at 1120 g/ha [15]
70%: inhibition at 1120 g/ha [3] | inhibition at 1120 g/ha [7]
100%: inhibition at 1120 g/ha [1] | inhibition at 1120 g/ha [2] | inhibition at 1120 g/ha [5] | inhibition at 1120 g/ha [8] | inhibition at 1120 g/ha [9] | inhibition at 1120 g/ha [12] | inhibition at 1120 g/ha [14] | inhibition at 1120 g/ha [16] | inhibition at 1120 g/ha [17] | inhibition at 1120 g/ha [18] | inhibition at 1120 g/ha [19]
20%: inhibition at 1120 g/ha [20]
0%: inhibition at 1120 g/ha [10]

Cn1nc(-c2ccc(Cl)cc2Cl)c(Cl)c1C(F)(F)F [Compound 85]
90%: inhibition at 11210 g/ha [17]
0%: inhibition at 11210 g/ha [10]
60%: inhibition at 11210 g/ha [11]
50%: inhibition at 11210 g/ha [14]
100%: inhibition at 11210 g/ha [1] | inhibition at 11210 g/ha [2] | inhibition at 11210 g/ha [4] | inhibition at 11210 g/ha [5] | inhibition at 11210 g/ha [6] | inhibition at 11210 g/ha [7] | inhibition at 11210 g/ha [8] | inhibition at 11210 g/ha [9] | inhibition at 11210 g/ha [16] | inhibition at 11210 g/ha [18] | inhibition at 11210 g/ha [19]
40%: inhibition at 11210 g/ha [3] | inhibition at 11210 g/ha [13]
70%: inhibition at 11210 g/ha [12]
20%: inhibition at 11210 g/ha [15] | inhibition at 11210 g/ha [20]

Cn1nc(-c2cc(C(Br)Br)c(Cl)cc2F)c(Cl)c1C(F)(F)F [Compound 132, 4-chloro-3-[4-chloro-5-(dibromomethyl)-2-fluorophenyl]-1-methyl-5-(trifluoromethyl)-1H-pyrazole]
100%: inhibition at 11210 g/ha [6] | inhibition at 11210 g/ha [8] | inhibition at 11210 g/ha [9] | inhibition at 11210 g/ha [12] | inhibition at 11210 g/ha [13] | inhibition at 11210 g/ha [15] | inhibition at 11210 g/ha [16] | inhibition at 11210 g/ha [17] | inhibition at 11210 g/ha [18] | inhibition at 11210 g/ha [19]
90%: inhibition at 11210 g/ha [2] | inhibition at 11210 g/ha [5]
80%: inhibition at 11210 g/ha [4] | inhibition at 11210 g/ha [14]
30%: inhibition at 11210 g/ha [10] | inhibition at 11210 g/ha [20]
60%: inhibition at 11210 g/ha [1] | inhibition at 11210 g/ha [11]
70%: inhibition at 11210 g/ha [3] | inhibition at 11210 g/ha [7]
